# Like-named read-outs stand apart in the source and are kept apart here.
# Assays:
# [1] = pH range of 4 to 8
# [2] = ascending single-dose pharmacokinetic study in healthy subjects; assay type: in vivo; settings: human, plasma, intravenous, 100 mg, 100 mg 1-hour, infusion, mean ± SD
# [3] = tested on: Caco-2 cell; experiment: Caco-2 cell permeability
# [4] = animal absorption study, oral bioavailability in rats; settings: rat, in vivo, 100 mg/kg
# [5] = ascending multiple-dose pharmacokinetic study in healthy subjects; assay type: in vivo; settings: human, plasma, po, mean ± SD; for half-life: read-out: T½ (converted)
# Protocol: A study was conducted as an ascending multiple-dose tolerance study of 2-(8,9-dioxo-2,6-diazabicyclo[5.2.0]non-1(7)-en-2-yl)ethyl]phosphonic acid with administration of 200, 400, 800, and 1600 mg oral doses in healthy subjects over a 14-day period.
# [6] = ascending single-dose pharmacokinetic study in healthy subjects; assay type: in vivo, human; settings: for AUC: t = 0 to ∞; for CL/F: read-out: mean oral-dose clearance (C1/F) (converted)
# Protocol: A study was conducted as an ascending single-dose tolerance study with fasting administration of 500, 1000, 2000, and 4000 mg oral doses. In each cohort, 8 subjects received either placebo (2 subjects) or the prescribed dose of 2-(8,9-dioxo-2,6-diazabicyclo[5.2.0]non-1(7)-en-2-yl)ethyl]phosphonic acid (6 subjects). Subjects in the fasting 1000-mg cohort were crossed over to receive a 1000-mg postprandial dose in study period 2. Additionally, the 2000-mg dose level was repeated in a cohort of elderly subjects.
# [7] = apparent n-octanol/water partition coefficient
# [8] = animal absorption study, oral bioavailability in monkeys; settings: monkey, in vivo, 100 mg/kg
# [9] = 200 mg, Multiple dose administration (day 14), 200 mg q 12 h Oral, fed
# [10] = 200 mg, Single dose administration, 200 mg Oral, fasting
# [11] = 400 mg, Multiple dose administration (day 14), 400 mg q 12 h Oral, fasting
# [12] = 400 mg, Single dose administration, 400 mg Oral, fasting
# [13] = 800 mg, Multiple dose administration (day 14), 800 mg q 12 h Oral, fasting
# [14] = 800 mg, Single dose administration, 800 mg Oral, fasting
# [15] = 1600 mg, Multiple dose administration (day 14), 1600 mg q 12 h Oral, fasting
# [16] = 1600 mg, Single dose administration, 1600 mg Oral, fasting
# [17] = 1000 mg, after standardized high-fat, high-calorie meal versus fasting
# [18] = human, plasma, po, 500 mg, 500 mg Oral, fasting, single administration, healthy subjects, mean ± SD
# [19] = human, plasma, po, 1000 mg, 1000 mg Oral, fasting, single administration, healthy subjects, mean ± SD
# [20] = human, plasma, po, 1000 mg, 1000 mg Oral, fed (high-fat, high-calorie meal), single administration, healthy subjects, mean ± SD
# [21] = human, plasma, po, 2000 mg, 2000 mg Oral, fasting (elderly), single administration, mean ± SD
# [22] = human, plasma, po, 2000 mg, 2000 mg Oral, fasting, single administration, healthy adult subjects, mean ± SD
# [23] = human, plasma, po, 4000 mg, 4000 mg Oral, fasting, single administration, healthy subjects, mean ± SD
compound,measurement,setting,value
"O=c1c2c(c1=O)N(CCP(=O)(O)O)CCCN2 [[2-(8,9-dioxo-2,6-diazabicyclo[5.2.0]non-1(7)-en-2-yl)ethyl]phosphonic acid]",solubility,[1],very soluble
same,Cmax,[2],4010 ± 512 ng/mL
same,AUC,[2]; t = 0 to ∞,10200 ± 1720 ng·h/mL
same,Caco-2 cell permeability,[3],poor
same,bioavailability,[4],~1%
same,Cmax,[5]; [9],153 ± 75 ng/mL
same,Tmax,[5]; [9],1.2 ± 0.3 h
same,half-life,[5]; [9],6.6 ± 3.9 h
same,AUC,"[5]; 200 mg, Multiple dose administration (day 14), 200 mg q 12 h Oral, fed, t = 0 to 12 hours (tau)",817 ± 265 ng·h/mL
same,Cmax,[5]; [10],172 ± 90 ng/mL
same,Tmax,[5]; [10],1.3 ± 0.5 h
same,half-life,[5]; [10],3.5 ± 0.6 h
same,AUC,"[5]; 200 mg, Single dose administration, 200 mg Oral, fasting, t = 0 to ∞",699 ± 201 ng·h/mL
same,Cmax,[5]; [11],398 ± 209 ng/mL
same,Tmax,[5]; [11],1.6 ± 1.3 h
same,half-life,[5]; [11],11.9 ± 10.4 h
same,AUC,"[5]; 400 mg, Multiple dose administration (day 14), 400 mg q 12 h Oral, fasting, t = 0 to 12 hours (tau)",1810 ± 747 ng·h/mL
same,Cmax,[5]; [12],346 ± 282 ng/mL
same,Tmax,[5]; [12],2 ± 1.6 h
same,half-life,[5]; [12],4.5 ± 1.2 h
same,AUC,"[5]; 400 mg, Single dose administration, 400 mg Oral, fasting, t = 0 to ∞",1490 ± 371 ng·h/mL
same,Cmax,[5]; [13],436 ± 151 ng/mL
same,Tmax,[5]; [13],1.4 ± 0.6 h
same,half-life,[5]; [13],16.9 ± 8.8 h
same,AUC,"[5]; 800 mg, Multiple dose administration (day 14), 800 mg q 12 h Oral, fasting, t = 0 to 12 hours (tau)",2180 ± 644 ng·h/mL
same,Cmax,[5]; [14],715 ± 524 ng/mL
same,Tmax,[5]; [14],1.4 ± 0.7 h
same,half-life,[5]; [14],8.3 ± 1.3 h
same,AUC,"[5]; 800 mg, Single dose administration, 800 mg Oral, fasting, t = 0 to ∞",3190 ± 800 ng·h/mL
same,Cmax,[5]; [15],1510 ± 842 ng/mL
same,Tmax,[5]; [15],1.4 ± 1.3 h
same,half-life,[5]; [15],10.5 ± 6.6 h
same,AUC,"[5]; 1600 mg, Multiple dose administration (day 14), 1600 mg q 12 h Oral, fasting, t = 0 to 12 hours (tau)",4910 ± 1210 ng·h/mL
same,Cmax,[5]; [16],962 ± 592 ng/mL
same,Tmax,[5]; [16],1.3 ± 1.3 h
same,half-life,[5]; [16],6.9 ± 1.7 h
same,AUC,"[5]; 1600 mg, Single dose administration, 1600 mg Oral, fasting, t = 0 to ∞",4060 ± 1320 ng·h/mL
same,lowering of mean Cmax by food,[6]; [17],67%
same,reduction of mean AUC by food,[6]; [17],57%
same,"mean oral-dose clearance (C1/F), lower in elderly than in healthy adult subjects","[6]; 2000 mg, fasting, single-dose",approximately 10%
same,Tmax,"[6]; human, plasma, intravenous, 100 mg, 100 mg 1-hour, infusion, healthy subjects, mean ± SD",0.95 ± 0.11 h
same,half-life,"[6]; human, plasma, intravenous, 100 mg, 100 mg 1-hour, infusion, healthy subjects, mean ± SD, read-out: T½ (converted)",8.3 ± 8.8 h
same,Cmax,[6]; [18],320 ± 63 ng/mL
same,Tmax,[6]; [18],1.9 ± 0.7 h
same,half-life,"[6]; human, plasma, po, 500 mg, 500 mg Oral, fasting, single administration, healthy subjects, mean ± SD, read-out: T½ (converted)",6.7 ± 6.4 h
same,AUC,[6]; [18],2140 ± 542 ng·h/mL
same,Cmax,[6]; [19],1180 ng/mL
same,Tmax,[6]; [19],0.88 h
same,half-life,"[6]; human, plasma, po, 1000 mg, 1000 mg Oral, fasting, single administration, healthy subjects, mean ± SD, read-out: T½ (converted)",14.6 ± 9.3 h
same,AUC,[6]; [19],5130 ng·h/mL
same,Cmax,[6]; [20],392 ng/mL
same,Tmax,[6]; [20],2.92 h
same,half-life,"[6]; human, plasma, po, 1000 mg, 1000 mg Oral, fed (high-fat, high-calorie meal), single administration, healthy subjects, mean ± SD, read-out: T½ (converted)",16 ± 10 h
same,AUC,[6]; [20],2210 ng·h/mL
same,Cmax,[6]; [21],1610 ± 628 ng/mL
same,Tmax,[6]; [21],1.25 ± 0.61 h
same,half-life,"[6]; human, plasma, po, 2000 mg, 2000 mg Oral, fasting (elderly), single administration, mean ± SD, read-out: T½ (converted)",14.1 ± 11.1 h
same,AUC,[6]; [21],8890 ng·h/mL
same,Cmax,[6]; [22],1790 ± 1360 ng/mL
same,Tmax,[6]; [22],1.42 ± 0.96 h
same,half-life,"[6]; human, plasma, po, 2000 mg, 2000 mg Oral, fasting, single administration, healthy adult subjects, mean ± SD, read-out: T½ (converted)",6.4 ± 2 h
same,AUC,[6]; [22],7640 ng·h/mL
same,CL/F,"[6]; human, plasma, po, 2000 mg, elderly subjects, 2000 mg, fasting, single-dose",52.3 mL/min/kg
same,CL/F,"[6]; human, plasma, po, 2000 mg, healthy adult subjects, 2000 mg, fasting, single-dose",58.3 mL/min/kg
same,Cmax,[6]; [23],1490 ± 436 ng/mL
same,Tmax,[6]; [23],2.6 ± 1.08 h
same,half-life,"[6]; human, plasma, po, 4000 mg, 4000 mg Oral, fasting, single administration, healthy subjects, mean ± SD, read-out: T½ (converted)",9.1 ± 4.6 h
same,AUC,[6]; [23],8980 ± 1980 ng·h/mL
same,half-life,"[6]; human, plasma, po, all cohorts, oral, fasting, estimates not always reliable, read-out: mean t1/2",6 to 16 h
same,bioavailability,"[6]; human, plasma, subjects in the first cohort (500 mg oral, 100 mg infusion), read-out: mean absolute bioavailability",4.3%
same,logP,[7],-1.37
same,bioavailability,[8],~2.5%

# Reference: patent publication US20050142192A1, “Oral administration of [2-(8,9-dioxo-2,6-diazabicyclo[5.2.0]non-1(7)-en-2-yl)alkyl] phosphonic acid and derivatives” (Wyeth, priority 2003, published 2005)
